Assay: xn = mol fraction of the nth substance listed
Settings: 101 kPa

CCOS(=O)(=O)[O-].CC[n+]1ccn(C)c1 + CCC(C)O
viscosity [mPa·s]
Settings | x1 = 0.1032 | x1 = 0.2027 | x1 = 0.2937 | x1 = 0.3936 | x1 = 0.4906 | x1 = 0.5916 | x1 = 0.6944 | x1 = 0.7957 | x1 = 0.8916 | x1 = 1
298.15 K | 4.62 | – | 9.73 | 14.02 | 19.79 | 28.15 | – | – | 71.7 | 96.2
303.15 K | 4.29 | – | 9.16 | 12.67 | – | 24 | 33 | 44 | – | 75.9
308.15 K | 3.46 | 5.31 | 7.53 | – | 14.29 | 20.49 | 27.81 | 36.7 | – | 60.7
313.15 K | 2.94 | – | 6.51 | – | 13.06 | – | 23.65 | 30.7 | 38.7 | –
318.15 K | 2.56 | – | 5.76 | 8.37 | 11.43 | 15.38 | 20.32 | 26.1 | 32.5 | 40.9
323.15 K | 2.03 | 3.36 | – | 7.36 | 10.09 | 13.57 | 17.64 | 22.35 | 27.4 | 33.8

CC[n+]1ccn(C)c1.O=S(=O)([O-])C(F)(F)F + CCC(C)O
viscosity [mPa·s]
Settings | x1 = 0.1092 | x1 = 0.1945 | x1 = 0.2945 | x1 = 0.3938 | x1 = 0.4988 | x1 = 0.5952 | x1 = 0.6907 | x1 = 0.7986 | x1 = 0.903 | x1 = 1
298.15 K | 3.95 | 5.32 | 6.57 | 7.9 | 10.59 | 15.33 | 22.63 | – | 39.43 | –
303.15 K | 3.47 | 4.65 | 5.76 | – | – | – | 19.37 | – | 33.21 | 38.31
308.15 K | 3.09 | 4.1 | 5.07 | – | 8.23 | 11.65 | 16.75 | 22.22 | – | 32.28
313.15 K | 2.75 | – | 4.51 | 5.5 | – | – | – | 19.09 | 24.05 | –
318.15 K | 2.46 | 3.24 | 4.03 | 4.94 | – | 9.13 | 12.84 | 16.7 | – | 23.86
323.15 K | 2.21 | 2.9 | 3.61 | 4.44 | 5.91 | 8.17 | – | 14.66 | – | 20.75

CCC(C)O (centres undefined) + CCOS(=O)(=O)[O-].CC[n+]1ccn(C)c1
x2 = 0
Settings | viscosity [mPa·s]
298.15 K | 2.58
303.15 K | 2.27
313.15 K | 1.77
318.15 K | 1.58
323.15 K | 1.41

CCC(C)O (centres undefined) + CC[n+]1ccn(C)c1.O=S(=O)([O-])C(F)(F)F
x2 = 0
Settings | viscosity [mPa·s]
298.15 K | 2.58
303.15 K | 2.27
313.15 K | 1.77
318.15 K | 1.58
323.15 K | 1.41

Reference: a compilation of properties of binary mixtures (doi:10.1016/j.fluid.2019.112447)
